The values below come from patent publication EP0535269A1, “Pharmaceutical compositions containing thiazolidinedione derivatives” (TANABE SEIYAKU CO., LTD., priority 1991, dated 1993).

A short description of this data set: Bioavailability of a solution in a water-soluble polymer: plasma levels after oral administration. The format is in vivo. The conditions noted are these: dogs, control formulation: untreated original drug (20 µm) with equal amount of corn starch in gelatin capsule, 100 mg/Dog, HPLC (Fig. 4). Here is the method: 5-[(2,4-dioxothiazolidin-5-yl)methyl]-2-[(2-naphthyl)methyl]benzoxazole (3 g) was dissolved in polyethyleneglycol (average molecule weight: approximately 380-420, trade name: Macrogol-400, Sanyo Chemical Industries Ltd.) (100 ml) to provide the preparation of the present invention. Mixture of an equal amount of untreated original drug (particle size: 20 µm) and corn starch was encapsulated in a gelatin capsule to give a formulation used as a control.
Four dogs (10 - 15 kg) were used in this experiment. The preparation of the invention was administered to dogs orally at the dose of 10 mg/Dog. In the separate experiment, the control formulation was administered at 100 mg/Dog. The blood was taken from the dogs and the concentration of the active compound (I) in the plasma sample was assayed in the same manner as described in the above. The time-course of the plasma levels of the drug was plotted.
In the figure, closed circles represent the average plasma levels of the compound (I) following the administration of the solution of the invention, and semi-closed circles represent those following the administration of untreated original drug.

On to `O=C1NC(=O)C(Cc2ccc3oc(Cc4ccc5ccccc5c4)nc3c2)S1` (stereo not shown) [raw material, 5-[(2,4-dioxothiazolidin-5-yl)methyl]-2-[(2-naphthyl)methyl]benzoxazole], for which the “plasma levels of the compound (I)” value is recorded as “extremely low”.
